Reference: patent US5306722A, “Thymidine derivatives and therapeutic method of use” (Bristol-Myers Squibb Company, priority 1992, dated 1994)

Target: HSV-1 TK (Human alphaherpesvirus 1 strain KOS, UniProt P17402)
Assay: Thymidine kinase inhibitory assay
Format: biochemical
Conditions: 1 μM [^3 H]thymidine, 5 mM ATP, pH 7.5, 37° C., 1 hour; 0-20 μM inhibitor; slope replots of Lineweaver-Burk plots
Procedure: The reaction (50 μl) was performed in: 50 mM Tris-HCl pH 7.5, 5 mM MgCl2, 30 mM KCl, 2 mM dithiothreitol, 5 mM ATP, 1 μM [^3 H]thymidine, 0-20 μM potential inhibitor, 0.075 mg/ml bovine serum albumin, 0.1 unit/ml HSV-1 TK. Incubation was at 37° C. for 1 hour. Samples (40 μl) were spotted on DE-81 filter disks, washed with 1 mM ammonium formate (pH 7), three times with water, twice with ethanol, and dried. Radioactivity was quantitated in a scintillation counter.
TK (thymidine kinase) was affinity purified from HSV-1 (KOS) infected cells by published procedures (Fyfe (1982) Mol. Pharmacol. 21:432-437 and Field et al. (1990) Antiviral Res. 13:41-52). One unit is defined as 1 nanomole thymidine phosphorylated per hour.
In Table 2, inhibition constants were determined from slope replots (1/slope vs [I]) of Lineweaver-Burk plots. "N" indicates the number of experiments, and each experiment was done in triplicate.

Chain of HSV-1 TK (P17402 whole entry, looked up): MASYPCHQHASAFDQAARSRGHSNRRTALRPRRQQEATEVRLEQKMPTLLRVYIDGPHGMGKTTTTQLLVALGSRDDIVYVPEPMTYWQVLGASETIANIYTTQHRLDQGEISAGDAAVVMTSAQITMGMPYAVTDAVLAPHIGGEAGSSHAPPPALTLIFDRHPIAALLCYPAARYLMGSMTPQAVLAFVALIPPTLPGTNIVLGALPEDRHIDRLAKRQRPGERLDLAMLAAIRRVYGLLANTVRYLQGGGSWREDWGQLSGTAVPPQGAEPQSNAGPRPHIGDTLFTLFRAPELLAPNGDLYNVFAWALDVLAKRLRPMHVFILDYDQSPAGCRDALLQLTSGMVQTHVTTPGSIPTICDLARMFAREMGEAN

SMILES | Ki [µM]
Cc1cn([C@H]2C[C@@H](O)[C@H](OCc3ccc(Br)cc3)O2)c(=O)[nH]c1=O [Compound 16] | 10.1 ± 4.7
CO[C@H]1O[C@@H](n2cc(C)c(=O)[nH]c2=O)C[C@@H]1O (single isomer, unassigned) [Compound 2] | 3.2 ± 0.3
Cc1cn([C@H]2C[C@H](O)[C@@H](OCCc3ccccc3)O2)c(=O)[nH]c1=O [Compound 12] | 26
Cc1cn([C@H]2C[C@@H](O)[C@H](OCCc3ccccc3)O2)c(=O)[nH]c1=O [Compound 13] | 4.3 ± 1.8
